According to ChEMBL document CHEMBL4725286, “Synthesis and antibiofilm evaluation of 3-hydroxy-2,3-dihydroquinazolin-4(1H)-one derivatives against opportunistic pathogen Acinetobacter baumannii” (2020):
Active and inactive are the calls of the source. The calls are words filed in the database; no cut-off is given here.

How the values were obtained:
[1] = tested on: Acinetobacter baumannii; test: Antibiofilm activity against Acinetobacter baumannii assessed as inhibition of biofilm formation at 50 uM incubated for 24 hrs at stationary condition by crystal violet staining based assay relative to control; format: functional
[2] = tested on: Acinetobacter baumannii; test: Antibiofilm activity against Acinetobacter baumannii assessed as inhibition of planktonic growth at 300 uM; format: functional, organism-based
[3] = tested on: Acinetobacter baumannii; test: Synergistic antibacterial activity against Acinetobacter baumannii S1 incubated for 24 hrs in presence of gentamycin sulfate by checkerboard titration assay; format: functional
[4] = tested on: Pseudomonas aeruginosa; test: Antibiofilm activity against Pseudomonas aeruginosa ATCC 27853 assessed as inhibition of biofilm formation at 50 uM incubated for 24 hrs at stationary condition by crystal violet staining based assay relative to control; format: functional
[5] = tested on: Acinetobacter baumannii; test: Antibiofilm activity against drug-resistant Acinetobacter baumannii 1925052 assessed as inhibition of biofilm formation at 50 uM incubated for 24 hrs at stationary condition by crystal violet staining based assay relative to control; format: functional
[6] = tested on: Acinetobacter baumannii; test: Synergistic antibacterial activity against Acinetobacter baumannii S1 assessed as FIC incubated for 24 hrs in presence of gentamycin sulfate by checkerboard titration assay; format: functional
[7] = tested on: Acinetobacter baumannii; test: Induction of morphological changes in Acinetobacter baumannii biofilm inhibition assessed as reduction in extracellular polysaccharide at 10 uL preincubated for 24 hrs followed by incubating in dark for 1 hr by optical density based plate reader assay relative to control; format: functional; design: scale not given: the % may be the effect or the level left
[8] = tested on: Acinetobacter baumannii; test: Synergistic antibacterial activity against Acinetobacter baumannii S1 assessed as FICI incubated for 24 hrs in presence of gentamycin sulfate by checkerboard titration assay; format: functional
[9] = tested on: Acinetobacter baumannii; test: Antibacterial activity against Acinetobacter baumannii S1 incubated for 24 hrs by checkerboard titration assay; format: functional
[10] = tested on: Acinetobacter baumannii; test: Antibacterial activity against Acinetobacter baumannii assessed as reduction in motility at 50 uM after 24 hrs photographic-based method; format: functional, organism-based
[11] = tested on: Escherichia coli; test: Antibiofilm activity against Escherichia coli assessed as inhibition of biofilm formation at 50 uM incubated for 24 hrs at stationary condition by crystal violet staining based assay relative to control; format: functional; conditions: DH5[alpha]
[12] = tested on: Acinetobacter baumannii; test: Synergistic antibacterial activity against Acinetobacter baumannii S1 assessed as FIC incubated for 24 hrs in presence of 3-hydroxy-2-isopropyl-1-octyl-2,3-dihydroquinazolin-4(1H)-one by checkerboard titration assay; format: functional
[13] = tested on: Acinetobacter baumannii; test: Synergistic antibacterial activity against Acinetobacter baumannii S1 assessed as FIC incubated for 24 hrs in presence of 1-(3-chlorobenzyl)-3-hydroxy-2-(2-hydroxyphenyl)-2,3-dihydroquinazolin-4(1H)-one by checkerboard titration assay; format: functional
[14] = tested on: Acinetobacter baumannii; test: Antibacterial activity against Acinetobacter baumannii assessed as bacterial death at 50 uM incubated for 15 mins by SYTO9 and PI staining based fluorescence microscopic method; format: functional, organism-based

Row | SMILES | inhibition at 50 µM [1] [%] | inhibition [2] | also measured
1 | CCCCCCCCN1c2ccccc2C(=O)N(O)C1c1ccccc1 (stereo not given) | 5.5 | inactive | 
2 | CCCCCCCCCCCCN1c2ccccc2C(=O)N(O)C1c1ccccc1O (stereo not given) | 8.9 | inactive | 
3 | CCCCCCCCCCN1c2ccccc2C(=O)N(O)C1c1ccccc1O (stereo not given) | 30.7 | inactive | MIC [3]: 2 µg/mL; inhibition at 50 µM [4]: 44.5%; inhibition at 50 µM [5]: 43.4%; Ratio [6]: 0.002; Activity [7]: 31%; fractional inhibitory concentration index (FICI) [8]: 0.252; MIC [9]: 1020 µg/mL; Activity [10]: Active; inhibition at 50 µM [11]: 40.8%
4 | O=C(Cc1cccc(Br)c1)N[C@H]1CCOC1=O | 7.9 |  | inhibition at 50 µM [4]: -1.72%; inhibition at 50 µM [5]: 28.2%; inhibition at 50 µM [11]: 50.1%
5 | CCCCCCCCCCCCCCN1c2ccccc2C(=O)N(O)C1c1ccccc1O (stereo not given) | 20.9 | inactive | 
6 | CCCCCCCCN1c2ccccc2C(=O)N(O)C1c1ccc(OC)cc1 (stereo not given) | 1.3 | inactive | 
7 | O=C1c2ccccc2NC(c2ccccc2O)N1O (stereo not given) | 16.3 | inactive | 
8 | CCCCCCN1c2ccccc2C(=O)N(O)C1c1ccccc1O (stereo not given) | 7.7 | inactive | 
9 | CN1c2ccccc2C(=O)N(O)C1c1ccccc1O (stereo not given) | 14.6 | inactive | 
10 | CCCCCCCCN1c2ccccc2C(=O)N(O)C1c1ccc(C)cc1 (stereo not given) | 9.2 | inactive | 
11 | CN[C@@H]1[C@@H](O)[C@@H](O[C@@H]2[C@@H](O)[C@H](O[C@H]3O[C@H]([C@@H](C)NC)CC[C@H]3N)[C@@H](N)C[C@H]2N)OC[C@]1(C)O.O=S(=O)(O)O |  |  | FIC [12]: 0.25; MIC [9]: 0.25 µg/mL; FIC [13]: 0.25
12 | CCC/C=C/C1N(O)C(=O)c2ccccc2N1CCCCCCCC (stereo not given) | 2.4 | inactive | 
13 | CCCCCCCCN1c2ccccc2C(=O)N(O)C1c1ccccc1OC (stereo not given) | 7.2 | inactive | 
14 | CCCCCCCCN1c2ccccc2C(=O)N(O)C1c1ccccc1Cl (stereo not given) | 8.1 | inactive | 
15 | CCCCCCCCN1c2ccccc2C(=O)N(O)C1C(C)C (stereo not given) | 10.2 | inactive | Activity [14]: inactive
16 | O=C1c2ccccc2N(Cc2cccc(Cl)c2)C(c2ccccc2O)N1O (stereo not given) | 34.1 | inactive | MIC [3]: 2 µg/mL; inhibition at 50 µM [4]: 55.4%; inhibition at 50 µM [5]: 38.2%; Ratio [6]: 0.002; Activity [7]: 34%; fractional inhibitory concentration index (FICI) [8]: 0.252; MIC [9]: 1020 µg/mL; Activity [10]: Active; inhibition at 50 µM [11]: 27.5%
17 | CCCCCCCCCCCCCCCCN1c2ccccc2C(=O)N(O)C1c1ccccc1O (stereo not given) | 4.7 | inactive | 
18 | CCCCCCCCN1c2ccccc2C(=O)N(O)C1c1ccccc1O (stereo not given) | 23.5 | inactive | 
19 | N#Cc1ccccc1CN1c2ccccc2C(=O)N(O)C1c1ccccc1O (stereo not given) | 17.6 | inactive | 
20 | CCCCCCCCN1c2ccccc2C(=O)N(O)C1c1ccc(O)cc1 (stereo not given) | 13.3 | inactive | 
21 | O=C1c2ccccc2N(Cc2cccc(F)c2)C(c2ccccc2O)N1O (stereo not given) | 27.5 | inactive | 
22 | CCCCCCCCN1c2ccccc2C(=O)N(O)C1c1ccc(Cl)cc1 (stereo not given) | 5.2 | inactive | 
23 | CCCCN1c2ccccc2C(=O)N(O)C1c1ccccc1O (stereo not given) | 29.7 | inactive | 
24 | O=C1c2ccccc2N(Cc2ccccc2)C(c2ccccc2O)N1O (stereo not given) | 17.5 | inactive | 
